Marks after values point to notes of the source that are not given here.
Experiments:
AM25-6 = assay: Antibiotic sensitivity of AM25-6 by the drug sensitive paper method; type: cell-based, Anaerofustis stercorihominis; settings: antibiotic susceptibility papers on AM25-6 plates, 37° C., 48 hours
Description: The sensitivity of AM25-6 to 20 common antibiotics was tested by the drug sensitive paper method. 100 μl of AM25-6 bacterial solution cultured to the logarithmic phase was spread plated. Antibiotic susceptibility papers (purchased from Hangzhou Microbial Reagent Co. LTD) were affixed on the medium surface of plates, cultured at 37° C. for 48 hours, after which the size of inhibition zone was measured.

[1] = test system: T2D mice model (C57bL/6 mice); assay: T2D animal model, oral glucose tolerance test (OGTT); type: in vivo
Description: (§1) The T2D animal model is constructed by using C57bL/6 mice (purchased from Guangdong Medical Experimental Animal Center) at 8 weeks old and 20±2 g of body weight. The mice were housed in a specific pathogen free (SPF) environment and adaptively fed for 1 week, followed by grouping and modeling. The T2D animal model is induced by injection of streptozotocin (STZ) along with feeding high-fat feed, and the mice having fasting blood glucose (FBG) reaching to 10 mM/L can be used as a T2D mice model. Fifty mice selected for experiments are randomly divided into 5 groups.
(§2) The experiment was carried out based on the different groups. After the construction of T2D mice model (i.e., FBG>10), the treatment was started and lasted for 2 months. The food intake amount and body weight of mice were recorded daily. Blood of mice was collected from the tail vein every week for detection of fasting blood glucose. The oral glucose tolerance test (OGTT) of mice was measured at week 4 of treatment and at the end of the experiment.
The results of oral glucose tolerance test (OGTT) for mice shown in Table 8 indicate that the blood glucose of mice reaches the highest level (i.e., 17.8-23.1 mmol/L) at 30 minutes upon administration of glucose by gavage. […] From the perspective of overall glucose tolerance process, it can be seen that Anaerofustis stercorihominis can effectively ameliorate glucose intolerance in diabetic mice.

[2] = test system: T2D mice model (C57bL/6 mice); assay: T2D animal model (STZ plus high-fat feed), body weight; type: in vivo; settings: gavage
Description: as §1
(§3) Bacterial agent group 1: the T2D mice model was administered with the AM25-6 bacterial solution (1×10^8 cfu/ml) by gavage;
(§4) Bacterial agent group 2: the T2D mice model was administered with the DSM 17244 bacterial solution (1×10^8 cfu/ml) by gavage;
(§5) Bacterial agent group 3: the T2D mice model was administered with the DSM 28733 bacterial solution (1×10^8 cfu/ml) by gavage;
(§6) Metformin treatment group: the T2D mice model was treated with the positive drug metformin.
as §2

[3] = test system: T2D mice model (C57bL/6 mice); assay: T2D animal model, fasting blood glucose; type: in vivo
Description: as §1, §3, §4, §5, §6, §2

Molecule	Diameter of inhibition zone (AM25-6)	also measured
NCC[C@H](O)C(=O)N[C@@H]1C[C@H](N)[C@@H](O[C@H]2O[C@H](CN)[C@@H](O)[C@H](O)[C@H]2O)[C@H](O)[C@H]1O[C@H]1O[C@H](CO)[C@@H](O)[C@H](N)[C@H]1O [Amikacin]	1.5 cm	–
CC1(C)S[C@@H]2[C@H](NC(=O)[C@H](N)c3ccccc3)C(=O)N2[C@H]1C(=O)O [Ampicillin]	>4.0 cm	–
CC1(C)S[C@@H]2[C@H](NC(=O)C(C(=O)O)c3ccccc3)C(=O)N2[C@H]1C(=O)O (some centres unmarked) [Carbenicillin]	>4.0 cm	–
CC1=C(C(=O)O)N2C(=O)[C@@H](NC(=O)[C@H](N)c3ccccc3)[C@H]2SC1 [Cefalexin]	2.0 cm	–
Cc1nnc(SCC2=C(C(=O)O)N3C(=O)[C@@H](NC(=O)Cn4cnnn4)[C@H]3SC2)s1 [Cefazolin]	2.6 cm	–
CCN1CCN(C(=O)N[C@@H](C(=O)N[C@@H]2C(=O)N3C(C(=O)O)=C(CSc4nnnn4C)CS[C@H]23)c2ccc(O)cc2)C(=O)C1=O [Cefoperazone]	>4.0 cm	–
CC1=C(C(=O)O)N2C(=O)[C@@H](NC(=O)[C@H](N)C3=CCC=CC3)[C@H]2SC1 [Cefradine]	2.0 cm	–
CO/N=C(\C(=O)N[C@@H]1C(=O)N2C(C(=O)O)=C(CSc3nc(=O)c(=O)[nH]n3C)CS[C@H]12)c1csc(N)n1 [Ceftriaxone Sodium]	>4.0 cm	–
CO/N=C(\C(=O)N[C@@H]1C(=O)N2C(C(=O)O)=C(COC(N)=O)CS[C@H]12)c1ccco1 [Cefuroxime]	3.0 cm	–
C[C@H]1c2cccc(O)c2C(=O)C2=C(O)[C@]3(O)C(=O)C(C(N)=O)=C(O)[C@@H](N(C)C)[C@@H]3[C@@H](O)[C@@H]21 [Doxycycline]	2.0 cm	–
CC[C@H]1OC(=O)[C@H](C)[C@@H](O[C@H]2C[C@@](C)(OC)[C@@H](O)[C@H](C)O2)[C@H](C)[C@@H](O[C@@H]2O[C@H](C)C[C@H](N(C)C)[C@H]2O)[C@](C)(O)C[C@@H](C)C(=O)[C@H](C)[C@@H](O)[C@]1(C)O [Erythromycin]	2.0 cm	–
CC(C)(O/N=C(\C(=O)N[C@@H]1C(=O)N2C(C(=O)[O-])=C(C[n+]3ccccc3)CS[C@H]12)c1csc(N)n1)C(=O)O [Fortum (Ceftazidime), Ceftazidime]	>4.0 cm	–
NC[C@H]1O[C@H](O[C@H]2[C@H](O)[C@@H](O[C@H]3O[C@H](CO)[C@@H](O)[C@H](N)[C@H]3O)[C@H](N)C[C@@H]2N)[C@H](O)[C@@H](O)[C@@H]1O [Kanamycin]	1.8 cm	–
CN(C)C(=N)N=C(N)N [Metformin, metformin, reference compound]	–	Blood glucose in OGTT, 0 minute ([1]; 0 minute after glucose by gavage): 9.3 mmol/L; Blood glucose in OGTT, 30 minutes ([1]; 30 minutes after glucose by gavage): 18.6 mmol/L; Blood glucose in OGTT, 60 minutes ([1]; 60 minutes after glucose by gavage): 16.4 mmol/L; Blood glucose in OGTT, 90 minutes ([1]; 90 minutes after glucose by gavage): 11.7* mmol/L; Blood glucose in OGTT, 120 minutes ([1]; 120 minutes after glucose by gavage): 10.3 mmol/L; Body weight ([2]; Week 1): 20.33 g; Body weight ([2]; Week 3): 22.36 g; Body weight ([2]; Week 5): 24.63 g; Body weight ([2]; Week 7): 25.86 g; Body weight ([2]; Week 9, *P<0.05 relative to model group): 26.53* g; Fasting blood glucose, Week 1 ([3]; Week 1): 16.8 mmol/L; Fasting blood glucose, Week 3 ([3]; Week 3): 16.2 mmol/L; Fasting blood glucose, Week 5 ([3]; Week 5): 13.9 mmol/L; Fasting blood glucose, Week 7 ([3]; Week 7): 11.5* mmol/L; Fasting blood glucose, Week 9 ([3]; Week 9): 10.1** mmol/L
CN(C)c1ccc(O)c2c1C[C@H]1C[C@H]3[C@H](N(C)C)C(O)=C(C(N)=O)C(=O)[C@@]3(O)C(O)=C1C2=O [Minocin (Minocycline), Minocycline]	2.6 cm	–
Cc1onc(-c2ccccc2)c1C(=O)N[C@@H]1C(=O)N2[C@@H]1SC(C)(C)[C@@H]2C(=O)O [Oxacillin]	1.0 cm	–
CCN1CCN(C(=O)N[C@@H](C(=O)N[C@@H]2C(=O)N3[C@@H]2SC(C)(C)[C@@H]3C(=O)O)c2ccccc2)C(=O)C1=O [Piperacillin]	3.0 cm	–
CN(C)[C@@H]1C(O)=C(C(N)=O)C(=O)[C@@]2(O)C(O)=C3C(=O)c4c(O)cccc4[C@@](C)(O)[C@H]3C[C@@H]12 [Tetracycline]	0.9 cm	–
Gentamicin	2.0 cm	–
Neomycin	1.0 cm	–
Penicillin	3.0 cm	–
